Consider seven molecules from patent US20060121449A1, “Method for selection of compounds which inhibit clonal cell growth and use thereof” (priority 2002, published 2006).

Series [1] has as its system spleen antibody producing cells against sheep red cells. The conditions noted are these: from the literature; cited from earlier work.
In series [2] the test system is polyoma virus transformed BHK21/c13 cells, line S100T1. The series can be described thus: Collocation inhibition test: clonal growth in sparsely and densely seeded areas of a cell density gradient of S100T1 cells in soft agar (Exp 13, 17, 19-26).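 On Clonal growth, H high density area of cell gradient, High: grades rise with clonal growth.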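 On Clonal growth, H high density area of cell gradient, Low: grades rise with clonal growth.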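 On Clonal growth, H high density area of cell gradient, Medium: grades rise with clonal growth.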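 On Clonal growth, L low density area of cell gradient, High: grades rise with clonal growth and minus or plus-minus means none.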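 On Clonal growth, L low density area of cell gradient, Low: grades rise with clonal growth and minus or plus-minus means none.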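 On Clonal growth, L low density area of cell gradient, Medium: grades rise with clonal growth and minus or plus-minus means none.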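 On all read-outs here: soft agar cultures in 24-well plates with a cell density gradient in the top layer, compounds applied from DMSO stocks, clonal growth scored in sparse versus dense areas.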 The conditions noted are these: for Effect on cell cloning in soft agar: in words; for Significance: Exp 17 day 14.
Series [3] concerns polyoma virus transformed BHK21/c13 cells, clone S100T1. The series can be described thus: Clonal test: clonal growth of S100T1 cells in soft agar (Exp 2, 4, 6, 15, 16). Particulars: for Significance of results: Exp 16, read after 14 days, ca. 223 μM; for Colony inhibiting activity for dosage within a range that might be therapeutic: Exp 16, about 40000 S100T1 cells/well; for Effect on clonal growth at 500 μM: DMSO toxicity might interfere. Format: cell-based, hamster.

The subject of series [4] is polyoma virus transformed BHK21/c13 cells, line S100T1.
Series [5] deals with BHK21/c13 (normal baby hamster kidney cells). Particulars: Tjøtta E. (1968); cited from earlier work.
The mark [6] stands for this setting: preliminary results, Exp 13-18, 21-26, high concentration.
[7] abbreviates: preliminary results, Exp 13-18, 21-26, low concentration.
The mark [8] stands for this setting: Exp 15, 32000 S100T1 cells/well.
Where [9] appears, read: preliminary results, Exp 13-18, 21-26, medium concentration.

Entries after “also recorded” stand apart in the source; their conditions may differ.

`CN(C)N` [1-1-dimethylhydrazine]: the “Effect on development of plaques in Jerne's test” value in series [1] is recorded as “enhances development of plaques”.

As for `CC(=O)Oc1ccccc1C(=O)O` [Acetylsalicylic acid], the “Clonal growth, L low density area of cell gradient, High” value in series [2] (setting [6]) is “((+))”. For the same molecule, the “Clonal growth, L low density area of cell gradient, Low” value in series [2] (setting [7]) is given as “(+)”. The “Effect on cell cloning in soft agar” value in series [2] (preliminary results) is recorded as “Possible inhibition of clonal growth”. Also, the “Effect on clonal growth at 100 μM” value in series [3] (setting [8]) is recorded as “possibly inhibited significantly, but not completely”. In series [3] (Exp 15, 32000 S100T1 cells/well, 30 μl DMSO in the well might be toxic), the “Effect on clonal growth at 1000 μM” value is “the inhibition is complete”. For the same molecule, the Significance of results in series [3] (Acetylsalicylic acid No 10) is on record as “probable”. Moreover, the “Colony inhibiting activity for dosage within a range that might be therapeutic” value in series [3] is reported as “probably had a colony inhibiting activity”. The Significance entry was “probable” in series [3] (Exp 16 day 14, Acetylsalicylic acid No 10, 215 μM); “doubtful*” in series [3] (Exp 16 day 14, Acetylsalicylic acid No 10, 464 μM, doubtful because the solvent DMSO might be inhibiting); “possible” in series [3] (Exp 16 day 21, Acetylsalicylic acid No 10, 215 μM); “doubtful*” in series [3] (Exp 16 day 21, Acetylsalicylic acid No 10, 464 μM, *see conclusion (DMSO)). Besides, the Growth result in series [3] (Exp 16 day 14, Acetylsalicylic acid No 10, 215 μM in wells) is recorded as “(+))”; in series [3] (Exp 16 day 14, Acetylsalicylic acid No 10, 464 μM in wells), “(+))”; in series [3] (Exp 16 day 21, Acetylsalicylic acid No 10, 215 μM in wells), “(+)”; in series [3] (Exp 16 day 21, Acetylsalicylic acid No 10, 464 μM in wells), “(+))”. The “Anti-clonal effect, summary of Exp 15” value in series [3] (S100T1 in soft agar) is reported as “showed possible clonal inhibition at low”.

Turning to `O=C(O)Cc1ccccc1Nc1c(Cl)cccc1Cl` [Diclofenac, reference compound], the “Clonal growth, L low density area of cell gradient, High” value in series [2] (setting [6]) was “++”. In addition, the “Clonal growth, L low density area of cell gradient, Low” value in series [2] (setting [7]) was “++(+)”. In addition, in series [2] (preliminary results), the “Effect on cell cloning in soft agar” value is “A possible increase of clonal growth”. Further, in series [3] (setting [8]), the “Effect on clonal growth at 10 μM” value is “probable significant increase in clonal growth” and the “Effect on clonal growth at 10-100 μM” value is given as “no significant inhibition”. Also, the “Anti-clonal effect, summary of Exp 15” value in series [3] (S100T1 in soft agar) was “increased clonal growth at low concentration”.

With `COc1cc([C@@H]2c3cc4c(cc3[C@@H](O[C@@H]3O[C@@H]5CO[C@@H](C)O[C@H]5[C@H](O)[C@H]3O)[C@H]3COC(=O)[C@H]23)OCO4)cc(OC)c1O` [Etoposide, reference compound], the “Inhibition of cells in crowded areas” value in series [2] (Exp 17) is recorded as “induce the best inhibition of cells in crowded areas”. Further, the “Effect on growth in high- and low-density areas” value in series [2] (Exp 17, 144000 S100T1 cells/well) is “growth inhibition of both high and low-density areas; also recorded: significant inhibition of growth in crowded areas”. Also, the “Clonal growth, results read on the day 14” value is recorded as “(+)” in series [2] (Exp 17, a: close to densely seeded cell areas, High: Colchicine 1, Podophyllotoxin 3, Etoposide 200, 4-OH—OPB 6.7 μM in wells, DMSO 29.2 μl); “+” in series [2] (Exp 17, a: close to densely seeded cell areas, Low: Colchicine 0.1, Podophyllotoxin 0.3, Etoposide 20, 4-OH—OPB 0.67 μM in wells, DMSO 1.16 μl); “+” in series [2] (Exp 17, a: close to densely seeded cell areas, Medium: Colchicine 0.3, Podophyllotoxin 0.9, Etoposide 60, 4-OH—OPB 2 μM in wells, DMSO 6.8 μl); “(+)” in series [2] (Exp 17, b: sparsely seeded areas in the same agar culture, High: Colchicine 1, Podophyllotoxin 3, Etoposide 200, 4-OH—OPB 6.7 μM in wells, DMSO 29.2 μl); “(+)” in series [2] (Exp 17, b: sparsely seeded areas in the same agar culture, Low: Colchicine 0.1, Podophyllotoxin 0.3, Etoposide 20, 4-OH—OPB 0.67 μM in wells, DMSO 1.16 μl); “(+)” in series [2] (Exp 17, b: sparsely seeded areas in the same agar culture, Medium: Colchicine 0.3, Podophyllotoxin 0.9, Etoposide 60, 4-OH—OPB 2 μM in wells, DMSO 6.8 μl). For the same molecule, in series [2] (Exp 17, compared with 4-OH-OPB), the “Clones in sparsely seeded locations of the agar” value is “allow the growth of a few small clones in sparsely seeded locations of the agar; also recorded: to allow the growth of a few small clones in sparsely”. The Significance result in series [2] (a: close to densely seeded cell areas, High: Colchicine 1, Podophyllotoxin 3, Etoposide 200, 4-OH—OPB 6.7 μM in wells, DMSO 29.2 μl) is “Possible”; in series [2] (a: close to densely seeded cell areas, Low: Colchicine 0.1, Podophyllotoxin 0.3, Etoposide 20, 4-OH—OPB 0.67 μM in wells, DMSO 1.16 μl) it was “No”; in series [2] (a: close to densely seeded cell areas, Medium: Colchicine 0.3, Podophyllotoxin 0.9, Etoposide 60, 4-OH—OPB 2 μM in wells, DMSO 6.8 μl), “No”; in series [2] (b: sparsely seeded areas, High: Colchicine 1, Podophyllotoxin 3, Etoposide 200, 4-OH—OPB 6.7 μM in wells, DMSO 29.2 μl), “Possible”; in series [2] (b: sparsely seeded areas, Low: Colchicine 0.1, Podophyllotoxin 0.3, Etoposide 20, 4-OH—OPB 0.67 μM in wells, DMSO 1.16 μl) it was “Possible”; in series [2] (b: sparsely seeded areas, Medium: Colchicine 0.3, Podophyllotoxin 0.9, Etoposide 60, 4-OH—OPB 2 μM in wells, DMSO 6.8 μl), “Possible”. The “Control of metastatic cells leaving tumour” value in series [2] (ability of cells to leave a tumour, grow and infiltrate locally or grow in sparsely seeded areas, concluded from Exp 17) was “probably not”. Further, in series [2] (setting [6]), the “Clonal growth, H high density area of cell gradient, High” value is on record as “(+)”. Also, the “Clonal growth, L low density area of cell gradient, High” value in series [2] (setting [6]) was “(+)”. Besides, the “Clonal growth, H high density area of cell gradient, Low” value in series [2] (setting [7]) is given as “+”. In series [2] (setting [7]), the “Clonal growth, L low density area of cell gradient, Low” value is “(+)”. In addition, the “Clonal growth, H high density area of cell gradient, Medium” value in series [2] (setting [9]) is “+”. Moreover, the “Clonal growth, L low density area of cell gradient, Medium” value in series [2] (setting [9]) is reported as “(+)”. Also, in series [2] (single cells or very few cells spread to distant sites, concluded from Exp 17), the “Control of settlement of metastatic cells” value was “partly”. Further, the “Toxicity for body or dense cell populations” value in series [4] is “yes”.

`COc1ccc2cc([C@H](C)C(=O)O)ccc2c1` [Naproxen]: in series [2] (preliminary results), the “Effect on cell cloning in soft agar” value is listed as “Clonal inhibition possible”. In addition, the “Effect on clonal growth at 500 μM” value in series [3] (setting [8]) is on record as “inhibited significantly”; in series [3] (Exp 15, 32000 S100T1 cells/well, listed as Naproxea), “probably inhibited significantly”. Besides, the Significance of results in series [3] (Naproxen No 9) is recorded as “possible”. Moreover, in series [3], the “Colony inhibiting activity for dosage within a range that might be therapeutic” value is recorded as “probably had a colony inhibiting activity; also recorded: the same activity possibly existed”. Besides, the Significance result in series [3] (Exp 16 day 14, Naproxen No 9, 108 μM) was “doubtful”; in series [3] (Exp 16 day 14, Naproxen No 9, 232 μM) it was “possible*”; in series [3] (Exp 16 day 21, Naproxen No 9, 108 μM) it was “doubtful”; in series [3] (Exp 16 day 21, Naproxen No 9, 232 μM) it was “possible*”. For the same molecule, the Growth entry in series [3] (Exp 16 day 14, Naproxen No 9, 108 μM in wells) is given as “(+”; in series [3] (Exp 16 day 14, Naproxen No 9, 232 μM in wells) it was “(+)”; in series [3] (Exp 16 day 21, Naproxen No 9, 108 μM in wells), “(+”; in series [3] (Exp 16 day 21, Naproxen No 9, 232 μM in wells) it was “(+)”. For the same molecule, the “Anti-clonal effect, summary of Exp 15” value in series [3] (S100T1 in soft agar) is on record as “showed possible clonal inhibition at low”. In addition, the “Anti-clonal effect, summary of Exp 16” value in series [3] (S100T1 in soft agar) was “Ibuprofen and Naproxen possibly inhibited and Acetyl”.

Take `CN1C(C(=O)Nc2ccccn2)=C(O)c2ccccc2S1(=O)=O` [Piroxicam]: the “Clonal growth, L low density area of cell gradient, High” value in series [2] (setting [6]) is on record as “+”. The “Clonal growth, L low density area of cell gradient, Low” value in series [2] (setting [7]) is “++”. Besides, the “Effect on cell cloning in soft agar” value in series [2] (preliminary results) is recorded as “Clonal inhibition possible”. Moreover, in series [3] (setting [8]), the “Effect on clonal growth at 50 μM” value is listed as “inhibited doubtfully; also recorded: possibly inhibited significantly” and the “Effect on clonal growth at 5-50 μM” value was “did not inhibit clonal growth significantly”. In series [3] (S100T1 in soft agar), the “Anti-clonal effect, summary of Exp 15” value is “Piroxicam inhibited less, but similarly”.

For “Insulin: Insulin Actrapid (Novo), 0.1 i.u./ml, growth factor”, the “Stimulation of clonal growth in soft agar culture” value in series [5] was “stimulate clonal growth of normal, but not transformed cells”.
